Assay results reported in patent US7795299B2, “Neo-tanshinlactone and analogs as potent and selective anti-breast cancer agents” (The University of North Carolina at Chapel Hill, priority 2004, dated 2010).
Converted amounts (≈) assume the structure as drawn.

What was measured:
[1] = test system: MDA-MB-231 (estrogen receptor negative breast cancer); test: In vitro anticancer assay (SRB), MDA-MB-231; assay type: cell-based, human; conditions: concentration that reduces cell growth by 50%, 3 days in culture, SRB; for IC50: Homo sapiens, MDA-MB-231, 72 h, read-out: ED50, MDA-MB-231 (ER−)
Protocol: (§1) All stock cultures were grown in T-25 flasks. Freshly trypsinized cell suspensions were seeded in 96-well microtiter plates at densities of 1500-7500 cells per well with compounds added from DMSO-diluted stock. After 3 days in culture, attached cells were fixed with cold 50% trichloroacetic acid and then stained with 0.4% sulforhodamine B (SRB). The absorbency at 562 nm was measured using a microplate reader after solubilizing the bound dye.
as §1, with “Biological assay. All” for “All”, “cultures are” for “cultures were”, “96-well microtitre” for “96-well microtiter”

[2] = test system: MCF-7 (estrogen receptor positive breast cancer); test: In vitro anticancer assay (SRB), MCF-7; assay type: cell-based, human; conditions: for IC50: MCF7, 72 h, read-out: ED50, MCF-7 (ER+)
Protocol: as §1
as §1, with “Biological assay. All” for “All”, “cultures are” for “cultures were”, “96-well microtitre” for “96-well microtiter”

[3] = test system: KB (nasopharyngeal carcinoma); test: In vitro anticancer assay (SRB), KB; assay type: cell-based, human; conditions: Homo sapiens, 72 h; concentration that reduces cell growth by 50%, 3 days in culture, SRB; read-out: ED50, KB
Protocol: (§2) In Vitro Anticancer Assay (Nakanishi, Y. et al., J. Med. Chem. 2003, 46, 3185). All stock cultures were grown in T-25 flasks. Freshly trypsinized cell suspensions were seeded in 96-well microtiter plates at densities of 1500-7500 cells per well with compounds added from DMSO-diluted stock. After 3 days in culture, attached cells were fixed with cold 50% trichloroacetic acid and then stained with 0.4% sulforhodamine B (SRB). The absorbency at 562 nm was measured using a microplate reader after solubilizing the bound dye. The mean ED50 is the concentration of agent that reduces cell growth by 50% under the experimental conditions and is the average from at least three independent determinations that were reproducible and statistically significant (FIG. 2). The following human tumor cell lines were used in the assay: A549 (non small cell lung cancer), MCF-7 (estrogen receptor positive breast cancer), ZR-75-1 (estrogen receptor positive breast cancer), MDA-MB-231 (estrogen receptor negative breast cancer), HS 587-T (estrogen receptor negative breast cancer), SK− BR-3 (HER-2-overexpressing breast cancer), A431 (EGFRoverexpressing skin cancer), LN-CaP (AR-dependent prostate cancer), SW620 (colon cancer), PC-3 (prostate cancer), KB (nasopharyngeal carcinoma), KB-VIN (vincristine-resistant KB subline). All cell lines were obtained from the Lineberger Comprehensive Cancer Center (UNC-CH) or from ATCC (Rockville, Md.) and were cultured in RPMI-1640 medium supplemented with 25 mMHEPES, 0.25% sodium bicarbonate, 10% fetal bovine serum, and 100 μg/mL kanamycin.
(§3) Biological assay. All stock cultures are grown in T-25 flasks. Freshly trypsinized cell suspensions were seeded in 96-well microtitre plates at densities of 1500-7500 cells per well with compounds added from DMSO-diluted stock. After 3 days in culture, attached cells were fixed with cold 50% trichloroacetic acid and then stained with 0.4% sulforhodamine B (SRB). The absorbency at 562 nm was measured using a microplate reader after solubilizing the bound dye. The mean ED50 is the concentration of agent that reduces cell growth by 50% under the experimental conditions and is the average from at least three independent determinations that were reproducible and statistically significant. The following human tumor cell lines were used in the assay: A549 (non-small cell lung cancer), MCF-7 (estrogen receptor positive breast cancer), ZR-75-1 (estrogen receptor positive breast cancer), MDA MB-231 (estrogen receptor negative breast cancer), HS 587-T (estrogen receptor negative breast cancer), SK-BR-3 (estrogen receptor negative, HER-2 over-expressing breast cancer), A431 (EGFR over-expressing skin cancer), LN-CaP (AR-dependent prostate cancer), SW620 (colon cancer), PC-3 (prostate cancer), KB (nasopharyngeal carcinoma), KB-VIN (Vincristine resistant KB subline). All cell lines were obtained from the Lineberg Cancer Center (UNC-CH) or from ATCC (Rockville, Md.) and were cultured in RPMI-1640 medium supplemented with 25 mM HEPES, 0.25% sodium bicarbonate, 10% fetal bovine serum, and 100 μg/mL kanamycin.

[4] = test system: SK-BR-3 (HER-2-overexpressing breast cancer); test: In vitro anticancer assay (SRB), SK-BR-3; assay type: cell-based, human; conditions: Homo sapiens, SK-BR-3, 72 h; concentration that reduces cell growth by 50%, 3 days in culture, SRB; read-out: ED50, SK-BR-3 (ER−, HER2+)
Protocol: as §2, §3

[5] = test system: A431 (EGFR over-expressing skin cancer); test: In vitro anticancer assay (SRB), A431; assay type: cell-based, human; conditions: Homo sapiens, A-431, 72 h; concentration that reduces cell growth by 50%, 3 days in culture, SRB; read-out: ED50, A431
Protocol: as §2, §3

SW620 (colon cancer) = test: In vitro anticancer assay (SRB), SW620; assay type: cell-based, human; conditions: Homo sapiens, SW-620, 72 h; concentration that reduces cell growth by 50%, 3 days in culture, SRB; read-out: ED50, SW620
Protocol: as §2, §3

[6] = test system: ZR-75-1 (estrogen receptor positive breast cancer); test: In vitro anticancer assay (SRB), ZR-75-1; assay type: cell-based, human; conditions: Homo sapiens, ZR-75-1, 72 h, concentration that reduces cell growth by 50%, 3 days in culture, read-out: ED50, ZR-75-1 (ER+)
Protocol: as §1
as §1, with “Biological assay. All” for “All”, “cultures are” for “cultures were”, “96-well microtitre” for “96-well microtiter”

[7] = Homo sapiens, concentration that reduces cell growth by 50%, 3 days in culture, SRB

| Compound | IC50 [1] [µg/mL] | IC50 [2, 7] [µg/mL] | melting point [°C] | IC50 [3] [µg/mL] | IC50 [4] [µg/mL] | IC50 [5] [µg/mL] | IC50 (SW620 (colon cancer)) [µg/mL] | IC50 [6] [µg/mL] | inhibition at 20 µg/mL ([2]; Homo sapiens, MCF7, at 20 μg/mL (Table 4), read-out: Percent inhibition at the test concentration (bracketed value), MCF-7) [%] | ED50, MDA-MB-231 (ER−) [1] [µg/mL] | ED50, MCF-7 (ER+) ([2]; concentration that reduces cell growth by 50%, 3 days in culture, SRB) [µg/mL] |
| --- | --- | --- | --- | --- | --- | --- | --- | --- | --- | --- | --- |
| O=c1oc2c(ccc3ccccc32)c2c1C(O)CO2 (stereo not shown) [Compound 3a, 17-Hydroxy-16,17-dihydro-11,15-dioxa-cyclopenta[a]phenanthren-12-one] | 3.8 (≈ 14.9 µM) | 12.5 (≈ 49.2 µM) | 203 to 205 | – | – | – | – | – | – | – | – |
| Cc1cccc2c1ccc1c3c(c(=O)oc12)C(O)CO3 (stereo not shown) [Compound 3b, 17-Hydroxy-4-methyl-16,17-dihydro-11,15-dioxa-cyclopenta[a]phenanthren-12-one] | – | 8.3 (≈ 30.9 µM) | – | > 10 | 8 (≈ 29.8 µM) | 3.2 (≈ 11.9 µM) | > 10 | > 10 | – | – | – |
| CCc1cccc2c1ccc1c3c(c(=O)oc12)C(O)CO3 (stereo not shown) [Compound 3c, 4-Ethyl-17-hydroxy-16,17-dihydro-11,15-dioxa-cyclopenta[a]phenanthren-12-one] | 5 (≈ 17.7 µM) | 5 (≈ 17.7 µM) | 163 to 165 | – | – | 3 (≈ 10.6 µM) | – | – | – | – | – |
| O=c1oc2c(cc(Cl)c3ccccc32)c2c1C(O)CO2 (stereo not shown) [Compound 3d, 6-Chloro-17-hydroxy-16,17-dihydro-11,15-dioxa-cyclopenta[a]phenanthren-12-one] | – | 5.6 (≈ 19.4 µM) | 150 | 9.5 (≈ 32.9 µM) | 8 (≈ 27.7 µM) | 7.8 (≈ 27 µM) | 4.2 (≈ 14.5 µM) | > 10 | – | – | – |
| COc1cc2c3c(c(=O)oc2c2ccccc12)C(O)CO3 (stereo not shown) [Compound 3e, 17-Hydroxy-6-methoxy-16,17-dihydro-11,15-dioxa-cyclopenta[a]phenanthren-12-one] | – | 5.6 (≈ 19.7 µM) | 210 to 212 | 6.8 (≈ 23.9 µM) | 9 (≈ 31.7 µM) | 6.5 (≈ 22.9 µM) | > 10 | 5.7 (≈ 20.1 µM) | – | – | – |
| C[C@H]1COC2=C1C(=O)C(=O)c1c2ccc2c1CCCC2(C)C [cryptotanshinone, reference compound] | 0.16 (≈ 0.54 µM) | 0.41 (≈ 1.38 µM) | – | – | – | – | – | – | – | – | – |
| Cc1coc2c1C(=O)C(=O)c1c-2ccc2c(C)cccc12 [tanshinone I, reference compound] | – | – | – | – | – | – | – | – | – | 0.75 (≈ 2.71 µM) | 0.82 (≈ 2.97 µM) |
| Cc1coc2c1C(=O)C(=O)c1c-2ccc2c1CCCC2(C)C [tanshinone IIA, reference compound] | 0.7 (≈ 2.38 µM) | 0.38 (≈ 1.29 µM) | – | – | – | – | – | – | – | – | – |

Further lines, with some results ahead:

| IC50 [1] [µg/mL] | IC50 [2, 7] [µg/mL] | melting point [°C] | IC50 [3] [µg/mL] | IC50 [4] [µg/mL] | IC50 [5] [µg/mL] | IC50 (SW620 (colon cancer)) [µg/mL] | IC50 [6] [µg/mL] | Compound | inhibition at 20 µg/mL ([2]; Homo sapiens, MCF7, at 20 μg/mL (Table 4), read-out: Percent inhibition at the test concentration (bracketed value), MCF-7) [%] | ED50, MDA-MB-231 (ER−) [1] [µg/mL] | ED50, MCF-7 (ER+) ([2]; concentration that reduces cell growth by 50%, 3 days in culture, SRB) [µg/mL] |
| --- | --- | --- | --- | --- | --- | --- | --- | --- | --- | --- | --- |
| 10.5 (≈ 44.4 µM) | > 20 | 198 to 200 | – | – | – | – | – | O=c1oc2c3ccccc3ccc2c2occc12 [Compound 4a, 11,15-Dioxa-cyclopenta[a]phenanthren-12-one] | 17 | – | – |
| – | 5.5 (≈ 22 µM) | 220 to 222 | > 10 | 8.5 (≈ 34 µM) | 8.3 (≈ 33.2 µM) | > 10 | > 10 | Cc1cccc2c1ccc1c3occc3c(=O)oc21 [Compound 4b, 4-Methyl-11,15-dioxa-cyclopenta[a]phenanthren-12-one] | – | – | – |
| > 10 | > 10 | 173 to 174 | – | – | – | – | – | CCc1cccc2c1ccc1c3occc3c(=O)oc21 [Compound 4c, 4-Ethyl-11,15-dioxa-cyclopenta[a]phenanthren-12-one] | – | – | – |
| – | 7 (≈ 25.9 µM) | 150 | > 10 | > 10 | > 10 | > 10 | > 10 | O=c1oc2c3ccccc3c(Cl)cc2c2occc12 [Compound 4d, 6-Chloro-11,15-dioxa-cyclopenta[a]phenanthren-12-one] | – | – | – |
| – | 3.4 (≈ 12.8 µM) | 194 to 195 | 9.5 (≈ 35.7 µM) | 4 (≈ 15 µM) | 9.5 (≈ 35.7 µM) | 4 (≈ 15 µM) | 8.5 (≈ 31.9 µM) | COc1cc2c3occc3c(=O)oc2c2ccccc12 [Compound 4e, 6-Methoxy-11,15-dioxa-cyclopenta[a]phenanthren-12-one] | – | – | – |
